# Legend:
# Meloidogyne incognita = Meloidogyne incognita test (MELGIN); type: in vivo; settings: application rate 20 ppm, lettuce roots; 100% = no galls formed
# Protocol: [table] To produce a suitable preparation of active compound, 1 part by weight of active compound is mixed with the stated amounts of solvents and emulsifier, and the concentrate is diluted with water to the desired concentration. Containers are filled with sand, solution of active compound, Meloidogyne incognita egg/larvae suspension and lettuce seeds. The lettuce seeds germinate and the plants develop. On the roots, galls are formed. After the desired period of time, the nematicidal activity is determined in % by the formation of galls. 100% means that no galls are formed; 0% means that the number of galls on the treated plants corresponds to that of the untreated control.
# [1] = system: eggs of the tobacco bud worm (Heliothis virescens); test: Heliothis virescens test (spray treatment); type: in vivo; settings: spray treatment of soybean leaves, application rate 500 g/ha, after 7 days; 100% = all eggs killed
# Protocol: [table] To produce a suitable preparation of active compound, 1 part by weight of active compound is mixed with the stated amounts of solvents and emulsifier, and the concentrate is diluted with emulsifier-containing water to the desired concentration. Soybean leaves (Glycine max.) are sprayed with an active compound preparation of the desired concentration and, after drying, populated with eggs of the tobacco bud worm (Heliothis virescens). After 7 days, the effect in % is determined. 100% means that all the eggs have been killed; 0% means that none of the eggs have been killed.
smiles,measurement,setting,value
"Cn1ncc(O)c(-c2ccc(Cl)c(Cl)c2)c1=O [I-1-a-4, 4-(3,4-dichlorophenyl)-5-hydroxy-2-methyl-3(2H)-pyridazinone]",melting point,,315 °C
CC(C)(C)n1ncc(O)c(-c2cc(-c3ccc(Cl)cc3)ccc2Cl)c1=O [I-1-a-10],nematicidal activity in % by the formation of galls,Meloidogyne incognita,at least 80%
CC(C)(C)n1ncc(O)c(-c2ccc(Cl)cc2Cl)c1=O [I-1-a-5],effect in % (eggs killed),[1],at least 80%

# — US8242055B2, “Herbicidally and insecticidally active phenyl-substituted pyridazinones” (Bayer Cropscience AG, priority 2008, dated 2012)
